This note sets out measurements from US8778974B2, “Trisubstituted 1,2,4 triazoles” (Janssen Pharmaceutica NV, priority 2008, dated 2014).

Structures are written as SMILES.

The target in series [1] is T1, hα7-wt nAChR-expressing GH4Cl cells (Homo sapiens, UniProt P36544).
T1 construct: expressed in transfected cells
The series can be described thus: Patch-clamp current recording (whole-cell), potentiation of choline 1 mM response, PAM type. In kind it is cell-based. The arrangement: key to Pam type: Type 0 compounds minimally enhance the effect size of the current elicited by 1 mM choline.; Type 1 compounds enhance the effect size of the current elicited by 1 mM choline but minimally alter the kinetics of the receptor.; Type 2 compounds enhance the effect size of the current elicited by 1 mM choline while reducing the rate and/or the extent of desensitization.; Type 3 compounds enhance the effect size of the current elicited by 1 mM choline. When tested at higher concentrations up to 10 μM they completely inhibit desensitization, in particular a 1 mM choline application of 250 milliseconds.; Type 4 compounds allow for an initial desensitization of the receptor followed by a re-opening of the receptor during agonist application. The settings on record: for EC50: according to Ex. D.2, "<5" = no top plateau reached at maximal concentration, read-out: Potency (pEC50) (converted); for Pam type: patch-clamp current recording, 1 mM choline. How it is done:
The compounds of the present invention are classified as type 1-4, based on qualitative kinetic properties, as determined by whole-cell voltage-clamp recordings. This classification is based on the effect of an α7 PAM compound, as described hereinbefore, on the signal elicited by an agonist application. In particular, said agonist is choline at a concentration of 1 mM. In a preferred experimental setting, said α7 PAM compound and choline are simultaneously applied to the cell, as described hereinafter. Desensitization is defined as the closure of the receptor upon activation during the application of the agonist in whole-cell voltage-clamp electrophysiology measurements seen as the reduction of the […] current after initial activation by the agonist.
The definition of the PAM types 1-4 is described hereinafter: • Type 0 compounds minimally enhance the effect size of the current elicited by 1 mM choline. • Type 1 compounds enhance the effect size of the current elicited by 1 mM choline but minimally alter the kinetics of the receptor. In particular, the rate and the extent of desensitization, elicited by the agonist, is not affected. The compound-modulated response to 1 mM choline, therefore, is a close to linear scaling of the 1 mM choline response in absence of the α7 PAM compound. • Type 2 compounds enhance the effect size of the current elicited by 1 mM choline while reducing the rate and/or the extent of desensitization. • Type 3 compounds enhance the effect size of the current elicited by 1 mM choline. […] At low-potency concentrations of the α7 PAM compound, the agonist-induced activation, which is followed by desensitization, can still be separated from the compound-induced re-opening as an initial inward current-maximum. At higher potency concentrations of the α7 PAM compound, the re-opening occurs faster than the closure due to desensitization so that the initial current-maximum disappears.
Patch-clamp Current Recording
Patch-clamp recording from mammalian cells has provided a powerful means of assessing the function of membrane-bound proteins thought to be subunits of ligand-gated ion channels. Activation of such proteins by endogenous or exogenous ligands cause opening of a pore associated with the receptor through which ions flow down their electrochemical gradient. In the case of the hα7-wt nAChR-expressing GH4Cl recombinant cell line the preferential permeability to calcium of this receptor means that calcium flows into the cell upon activation by ACh, choline and other nicotinic ligands giving rise to a calcium current. Since this receptor rapidly desensitizes in the presence of agonist it is important an application system is used which is capable of very rapid switching of solutions (<100 ms) to prevent partial or full desensitisation of receptor responses coincident with the time of agonist application. Consequently, a second convenient technique to assess the enhancement of nicotinic efficacy is patch-clamp recording from hα7-wt nAChR-expressing GH4Cl cells coupled with a rapid-application system.
• a) Assay buffers • The external recording solution consisted of 152 mM NaCl, 5 mM KCl, 1 mM MgCl2, 1 mM Calcium, 10 mM HEPES; pH 7.3. The internal recording solution consisted of 140 mM CsCl, 10 mM HEPES, 10 mM EGTA, 1 mM MgCl2, pH 7.3. • b) Patch-clamp recording was carried out using a Patch-clamp amplifier (Multiclamp 700A, Axon Instruments, Calif., USA). hα7-wt nAChR-expressing GH4Cl cells were patch-clamp in the whole cell configuration (Hamill et al, 1981) with a borosilicate glass electrode of 1.5-3 MΩ tip resistance when filled with the internal recording solution. Recordings were made on cells with membrane resistance >500 MΩ and more preferably 1GΩ and series resistance <15 MΩ with at least 60% series resistance compensation. […]
A general note: The patch-clamp technique gives a direct electrical read-out from membranes.

T1 sequence (P36544 23-502): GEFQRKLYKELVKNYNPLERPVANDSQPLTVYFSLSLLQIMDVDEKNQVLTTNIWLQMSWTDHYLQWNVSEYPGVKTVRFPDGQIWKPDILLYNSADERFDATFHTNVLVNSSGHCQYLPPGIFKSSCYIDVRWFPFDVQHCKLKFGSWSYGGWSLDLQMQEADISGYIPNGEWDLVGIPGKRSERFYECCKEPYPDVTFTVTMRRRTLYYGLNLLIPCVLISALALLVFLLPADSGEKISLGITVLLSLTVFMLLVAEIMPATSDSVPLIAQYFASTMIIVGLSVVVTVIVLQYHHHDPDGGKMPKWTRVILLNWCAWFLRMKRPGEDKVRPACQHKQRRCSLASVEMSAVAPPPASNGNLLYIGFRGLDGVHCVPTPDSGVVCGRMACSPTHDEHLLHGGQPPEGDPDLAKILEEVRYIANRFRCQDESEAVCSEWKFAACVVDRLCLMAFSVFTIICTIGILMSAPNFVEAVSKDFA

As usually defined, the melting point is the temperature of the solid-liquid transition. Turning to `Cc1cc(-n2nc(Nc3cc(F)c(F)cc3F)nc2C[C@H](C)O)cc(C)n1` [E194], the melting point worked out at 177.7 °C. Further, the EC50 in series [1] is 5010 nM.

In turn, `CCNC(=O)Cc1nc(Nc2ccc(F)c(F)c2)nn1-c1cc(C)nc(C)c1` [E167, 3-[(3,4-difluorophenyl)amino]-1-(2,6-dimethyl-4-pyridinyl)-N-ethyl-1H-1,2,4-triazole-5-acetamide] displayed a melting point of 296.8 °C. Besides, in series [1], the EC50 is 617 nM and the Pam type was found to be 2.

`CCNC(=O)Cc1nc(Nc2cccc(Cl)c2F)nn1-c1cc(C)nc(C)c1` [E153, 3-[(3-chloro-2-fluorophenyl)amino]-1-(2,6-dimethyl-4-pyridinyl)-N-ethyl-1H-1,2,4-triazole-5-acetamide] yielded a melting point of 231.4 °C. In addition, in series [1], the EC50 was 562 nM and the Pam type worked out at 2.

Take `Cc1cc(-n2nc(Nc3ccc(F)c(F)c3)nc2CC(=O)NC2CC2)cc(C)n1` [E168]: the melting point worked out at 279.3 °C. Besides, in series [1], the EC50 was 513 nM and the Pam type is 2.

Turning to `Cc1cc(-n2nc(Nc3cccc(OC(F)(F)F)c3)nc2CCC(=O)N(C)C)ccn1` [E73], the melting point was 215.4 °C. In series [1], the EC50 is 135 nM and the Pam type is 4.

In turn, `CC[C@H](O)Cc1nc(Nc2cc(F)c(F)c(F)c2)nn1-c1ccnc(C)c1` [E187, (alphaS)-alpha-ethyl-1-(2-methyl-4-pyridinyl)-3-[(3,4,5-trifluorophenyl)amino]-1H-1,2,4-triazole-5-ethanol] gave a melting point of 177.4 °C. In series [1], the EC50 is 224 nM and the Pam type came to 2.

`CC[C@H](O)Cc1nc(Nc2cccc(Cl)c2)nn1-c1cc(C)nc(C)c1` [E129] gave a melting point of 154.6 °C. Besides, in series [1], the EC50 is 245 nM and the Pam type came to 2.

`Cc1cc(-n2nc(Nc3ccc(F)c(F)c3)nc2C[C@@H](C)O)cc(C)n1` [E197] came in with a melting point of 225.1 °C. Besides, in series [1], the EC50 is 1780 nM and the Pam type stood at 2.

`CC[C@H](O)Cc1nc(Nc2cc(OC)cc(C(F)(F)F)c2)nn1-c1ccnc(C)c1` [E137, (alphaS)-alpha-Ethyl-3-[[3-methoxy-5-(trifluoromethyl)phenyl]amino]-1-(2-methyl-4-pyridinyl)-1H-1,2,4-triazole-5-ethanol] registered a melting point of 174.1 °C. For the same molecule, in series [1], the EC50 is 105 nM and the Pam type turned out to be 4.

In turn, `CC[C@H](O)Cc1nc(Nc2ccc(F)c(F)c2)nn1-c1cccnc1` [E145] had a melting point of 144.2 °C. The EC50 in series [1] was 2450 nM.

Consider `Cc1cc(-n2nc(Nc3cccc(OC(F)(F)F)c3)nc2CC(=O)NC2CCC2)cc(C)n1` [E184], for which the melting point was 264.4 °C. Further, in series [1], the EC50 was 257 nM and the Pam type was found to be 2.

`CCNC(=O)Cc1nc(Nc2ccc3c(c2)OC(F)(F)O3)nn1-c1cc(C)nc(C)c1` [E200, 3-[(2,2-difluoro-1,3-benzodioxol-5-yl)amino]-1-(2,6-dimethyl-4-pyridinyl)-N-ethyl-1H-1,2,4-triazole-5-acetamide] showed a melting point of 280.9 °C. Also, in series [1], the EC50 was 407 nM and the Pam type came out at 2.

In the case of `Cc1cc(-n2nc(Nc3ccc(F)c(F)c3)nc2CC(=O)NCC2CC2)cc(C)n1` [E185], the melting point was 278.7 °C. For the same molecule, in series [1], the EC50 was 468 nM and the Pam type was 2.

`Cc1cc(-n2nc(Nc3ccc(F)c(C(F)(F)F)c3)nc2CC(C)O)ccn1` (stereo not drawn) [E10, 3-[[4-Fluoro-3-(trifluoromethyl)phenyl]amino]-alpha-methyl-1-(2-methyl-4-pyridinyl)-, (alphaS)-1H-1,2,4-triazole-5-ethanol] returned a melting point of 192.7 °C. In series [1], the EC50 was 1050 nM and the Pam type came out at 2.

For the molecule `Cc1cc(-n2nc(Nc3cccc(OC(F)(F)F)c3)nc2CC(=O)NC2CC2)cc(C)n1` [E182, N-cyclopropyl-1-(2,6-dimethyl-4-pyridinyl)-3-[[3-(trifluoromethoxy)phenyl]amino]-1H-1,2,4-triazole-5-acetamide], the melting point came to 282.2 °C. For the same molecule, in series [1], the EC50 was 331 nM and the Pam type was determined as 2.

`CNC(=O)CCc1nc(Nc2ccc(F)c(C(F)(F)F)c2)nn1-c1cccc(OC)c1` [E42] came in with a melting point of 170.9 °C. Moreover, in series [1], the EC50 is 2750 nM.

In turn, `CC[C@@H](O)Cc1nc(Nc2cc(OC)cc(C(F)(F)F)c2)nn1-c1ccc(C)nc1` [E195] returned a melting point of 151.9 °C. Also, the EC50 in series [1] was 3630 nM.

In turn, `CC[C@H](O)Cc1nc(Nc2cccc(Cl)c2)nn1-c1ccc(C)nc1` [E196] registered a melting point of 110.4 °C. In series [1], the EC50 is 912 nM and the Pam type is 2.

For the molecule `COc1cc(Nc2nc(C[C@H](C)O)n(-c3ccc(C)nc3)n2)cc(C(F)(F)F)c1` [E143], the melting point came out at 137.5 °C. Also, in series [1], the EC50 was 912 nM and the Pam type is on record as 4.

`CCNC(=O)Cc1nc(Nc2cccc(C(F)(F)F)c2)nn1-c1cc(C)nc(C)c1` [E175]: the melting point was determined as 283.6 °C. Besides, in series [1], the EC50 is 550 nM and the Pam type was 4.

In the case of `COc1ccc(-n2nc(Nc3ccc(F)c(F)c3)nc2C[C@H](C)O)cc1` [E21], the melting point was determined as 181.4 °C. In series [1], the EC50 was 1780 nM and the Pam type was determined as 1.

In the case of `Cc1cncc(-n2nc(Nc3ccc4c(c3)OC(F)(F)O4)nc2CCC(=O)N(C)C)c1` [E119], the melting point was 141.1 °C. Moreover, in series [1], the EC50 is 107 nM and the Pam type came out at 4.

In turn, `Cc1cc(-n2nc(Nc3cccc(Cl)c3F)nc2CC(=O)NC2CCC2)cc(C)n1` [E152] had a melting point of 234 °C. In series [1], the EC50 is 245 nM and the Pam type turned out to be 2.

For `Cc1cc(-n2nc(Nc3ccc(F)c(F)c3F)nc2C[C@H](C)O)ccn1` [E277], the melting point turned out to be 131.4 °C. Moreover, the EC50 in series [1] was 6310 nM.

The molecule `COc1ncccc1-n1nc(Nc2cccc(OC(F)(F)F)c2)nc1CCC(=O)N(C)C` [E4, 1-(2-Methoxy-3-pyridinyl)-N,N-dimethyl-3-[[3-(trifluoromethoxy)phenyl]amino]-1H-1,2,4-triazole-5-propanamide] displayed a melting point of 166.7 °C. In addition, the EC50 in series [1] was 3800 nM.

For the molecule `CCc1cc(-n2nc(Nc3cc(OC)cc(C(F)(F)F)c3)nc2C[C@H](C)O)ccn1` [E133], the melting point worked out at 156.2 °C. Also, in series [1], the EC50 is 363 nM and the Pam type is given as 4.

On to `Cc1cc(-n2nc(Nc3ccc4c(c3)OC(F)(F)O4)nc2CC(=O)NC2CC2)c(C)cn1` [E160], for which the melting point was determined as 248.3 °C. Also, in series [1], the EC50 is 2140 nM and the Pam type worked out at 2.

Molecule `CC[C@H](O)Cc1nc(Nc2cc(OC)cc(C(F)(F)F)c2)nn1-c1ccc(C)nc1` [E142] displayed a melting point of 154.7 °C. In series [1], the EC50 is 182 nM and the Pam type is on record as 4.

On to `CCc1cc(-n2nc(Nc3ccc(F)c(F)c3)nc2C[C@@H](O)CC)ccn1` [E138], for which the melting point was 169.4 °C. Moreover, in series [1], the EC50 is 295 nM and the Pam type was 2.
